In PubChem BioAssay (NCI):
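Following 48 hours of exposure in 96-well plates, responses at five concentrations were used to interpolate endpoints linearly. TGI denotes the concentration required for complete inhibition of growth.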

Experiments:
Assay in all cases: DTP human tumour cell line panel, 48 h
SK-MEL-2 melanoma = tested on: SK-MEL-2 melanoma
U251 CNS = tested on: U251 CNS
KM12 colon = tested on: KM12 colon
CCRF-CEM leukemia = tested on: CCRF-CEM leukemia
SF-539 CNS = tested on: SF-539 CNS
MALME-3M melanoma = tested on: MALME-3M melanoma
OVCAR-5 ovarian = tested on: OVCAR-5 ovarian
NCI/ADR-RES ovarian = tested on: NCI/ADR-RES ovarian
MOLT-4 leukemia = tested on: MOLT-4 leukemia
PC-3 prostate = tested on: PC-3 prostate
LOX IMVI melanoma = tested on: LOX IMVI melanoma
SR leukemia = tested on: SR leukemia
M14 melanoma = tested on: M14 melanoma
SF-268 CNS = tested on: SF-268 CNS
NCI-H23 lung = tested on: NCI-H23 lung
HCT-116 colon = tested on: HCT-116 colon
COLO 205 colon = tested on: COLO 205 colon
HL-60(TB) leukemia = tested on: HL-60(TB) leukemia
HOP-62 NSCLC = tested on: HOP-62 NSCLC
SF-295 CNS = tested on: SF-295 CNS
SN12C renal = tested on: SN12C renal
A549 NSCLC = tested on: A549 NSCLC
ACHN renal = tested on: ACHN renal
A498 renal = tested on: A498 renal
UACC-257 melanoma = tested on: UACC-257 melanoma
OVCAR-4 ovarian = tested on: OVCAR-4 ovarian
HOP-92 NSCLC = tested on: HOP-92 NSCLC
MCF7 breast = tested on: MCF7 breast
SK-OV-3 ovarian = tested on: SK-OV-3 ovarian
SNB-19 CNS = tested on: SNB-19 CNS
NCI-H522 lung = tested on: NCI-H522 lung
MDA-MB-231 breast = tested on: MDA-MB-231 breast
HCC-2998 colon = tested on: HCC-2998 colon
T-47D breast = tested on: T-47D breast
MDA-MB-435 = tested on: MDA-MB-435
CAKI-1 renal = tested on: CAKI-1 renal
SK-MEL-28 melanoma = tested on: SK-MEL-28 melanoma
DU-145 prostate = tested on: DU-145 prostate
SW-620 colon = tested on: SW-620 colon
RPMI-8226 leukemia = tested on: RPMI-8226 leukemia
RXF 393 renal = tested on: RXF 393 renal
HT29 colon = tested on: HT29 colon
TK-10 renal = tested on: TK-10 renal
UO-31 renal = tested on: UO-31 renal
SK-MEL-5 melanoma = tested on: SK-MEL-5 melanoma
OVCAR-8 ovarian = tested on: OVCAR-8 ovarian
IGROV1 ovarian = tested on: IGROV1 ovarian
EKVX NSCLC = tested on: EKVX NSCLC
HS 578T breast = tested on: HS 578T breast
OVCAR-3 ovarian = tested on: OVCAR-3 ovarian
SNB-75 CNS = tested on: SNB-75 CNS
NCI-H226 lung = tested on: NCI-H226 lung
UACC-62 melanoma = tested on: UACC-62 melanoma
BT-549 breast = tested on: BT-549 breast
MDA-N = tested on: MDA-N
K-562 leukemia = tested on: K-562 leukemia
786-0 renal = tested on: 786-0 renal
NCI-H460 lung = tested on: NCI-H460 lung
HCT-15 colon = tested on: HCT-15 colon

COc1cc2c(cc1OC)C1(c3ccccc3)CN(C2)Cc2cc(OC)c(OC)cc21
TGI (SK-MEL-2 melanoma): 70.1 µM | TGI (U251 CNS): 54.6 µM | TGI (KM12 colon): > 100 µM | TGI (CCRF-CEM leukemia): 61.4 µM | TGI (SF-539 CNS): 41.9 µM | TGI (MALME-3M melanoma): > 100 µM | TGI (OVCAR-5 ovarian): > 100 µM | TGI (NCI/ADR-RES ovarian): 74.9 µM | TGI (MOLT-4 leukemia): 84.7 µM | TGI (PC-3 prostate): > 100 µM | TGI (LOX IMVI melanoma): > 100 µM | TGI (SR leukemia): 32.2 µM | TGI (M14 melanoma): 59.6 µM | TGI (SF-268 CNS): > 100 µM | TGI (NCI-H23 lung): 68.3 µM | TGI (HCT-116 colon): > 100 µM | TGI (COLO 205 colon): 34.2 µM | TGI (HL-60(TB) leukemia): 63.8 µM | TGI (HOP-62 NSCLC): > 100 µM | TGI (SF-295 CNS): > 100 µM | TGI (SN12C renal): > 100 µM | TGI (A549 NSCLC): > 100 µM | TGI (ACHN renal): > 100 µM | TGI (A498 renal): > 100 µM | TGI (UACC-257 melanoma): > 100 µM | TGI (OVCAR-4 ovarian): 77.6 µM | TGI (HOP-92 NSCLC): > 100 µM | TGI (MCF7 breast): > 100 µM | TGI (SK-OV-3 ovarian): > 100 µM | TGI (SNB-19 CNS): > 100 µM | TGI (NCI-H522 lung): > 100 µM | TGI (MDA-MB-231 breast): 53.8 µM | TGI (HCC-2998 colon): 50.1 µM | TGI (T-47D breast): > 100 µM | TGI (MDA-MB-435): 54.8 µM | TGI (CAKI-1 renal): > 100 µM | TGI (SK-MEL-28 melanoma): > 100 µM | TGI (DU-145 prostate): > 100 µM | TGI (SW-620 colon): > 100 µM | TGI (RPMI-8226 leukemia): 80.2 µM | TGI (RXF 393 renal): 60.3 µM | TGI (HT29 colon): > 100 µM | TGI (TK-10 renal): > 100 µM | TGI (UO-31 renal): > 100 µM | TGI (SK-MEL-5 melanoma): 53.3 µM | TGI (OVCAR-8 ovarian): > 100 µM | TGI (IGROV1 ovarian): > 100 µM | TGI (EKVX NSCLC): > 100 µM | TGI (HS 578T breast): 75.5 µM | TGI (OVCAR-3 ovarian): > 100 µM | TGI (SNB-75 CNS): 92.3 µM | TGI (NCI-H226 lung): 91.4 µM | TGI (UACC-62 melanoma): > 100 µM | TGI (BT-549 breast): 80.1 µM | TGI (MDA-N): > 100 µM | TGI (K-562 leukemia): > 100 µM | TGI (786-0 renal): > 100 µM | TGI (NCI-H460 lung): > 100 µM | TGI (HCT-15 colon): > 100 µM
